The text below walks through data of patent US9523100B2, “Pesticidal compositions and related methods” (DOW AGROSCIENCES LLC, priority 2013, dated 2016).

As a reminder, the mortality is the share of the test organisms that died.

Assay [1] has as its system Green Peach Aphid (GPA) (Myzus persicae) (MYZUPE). The assay can be described thus: Bioassay for Green Peach Aphid (GPA), foliar spray on cabbage seedlings. Format: in vivo. To be noted: 72 h, read-out: GPA 200 ppm, % Control (or Mortality) rating. From the text:
Bioassay for Green Peach Aphid (GPA) (Myzus persicae) (MYZUPE)
The green peach aphid (Myzus persicae) is the most significant aphid pest of peach trees, causing decreased growth, shriveling of the leaves, and the death of various tissues. It is also hazardous because it acts as a vector for the transport of plant viruses, such as potato virus Y and potato leafroll virus to members of the nightshade/potato family Solanaceae, and various mosaic viruses to many other food crops. GPA attacks such plants as broccoli, burdock, cabbage, carrot, cauliflower, daikon, eggplant, green beans, lettuce, macadamia, papaya, peppers, sweet potatoes, tomatoes, watercress, and zucchini, among other plants GPA also attacks many ornamental crops such as carnation, chrysanthemum, flowering white cabbage, poinsettia, and roses. GPA has developed resistance to many pesticides.
Cabbage seedlings grown in 3-inch pots, with 2-3 small (3-5 cm) true leaves, were used as test substrate. The seedlings were infested with 20-50 GPA (wingless adult and nymph stages) one day prior to chemical application. Four pots with individual seedlings were used for each treatment. Test compounds (2 mg) were dissolved in 2 mL of acetone/methanol (1:1) solvent, forming stock solutions of 1000 ppm test compound. The stock solutions were diluted 5× with 0.025% Tween 20 in water to obtain the solution at 200 ppm test compound. A hand-held aspirator-type sprayer was used for spraying a solution to both sides of […] leaves until runoff. Reference plants (solvent check) were sprayed with the diluent only containing 20% by volume of acetone/methanol (1:1) solvent. Treated plants were held in a holding room for three days at approximately 25° C. and ambient relative humidity (RH) prior to grading. Evaluation was conducted by counting the number of live aphids per plant under a microscope. Percent control was measured by using Abbott's correction formula (W. S. Abbott, “A Method of Computing the Effectiveness of an Insecticide” J. Econ. Entomol. 18 (1925), pp. 265-267) as follows. Corrected % Control=100*(X−Y)/X
X=No. of live aphids on solvent check plants and
Y=No. of live aphids on treated plants
Biological Data for Green Peach Aphid (GPA) (MYZUPE) and Sweetpotato Whitefly-Crawler (WF) (BEMITA)” (see table section).
(§1) The mortality efficiency of the pesticidal compounds against GPA and WF insects was determined after treatment.

For assay [2], the system named is Sweetpotato Whitefly-Crawler (WF) (Bemisia tabaci) (BEMITA). The assay can be described thus: Insecticidal test for Sweetpotato Whitefly-Crawler (WF) in foliar spray assay on cotton plants. The format is in vivo. To be noted: 216 h, read-out: WF 200 ppm, % Control (or Mortality) rating.
Description: Insecticidal Test for Sweetpotato Whitefly-Crawler (WF) (Bemisia tabaci) (BEMITA) in Foliar Spray Assay
The sweetpotato whitefly (Bemisia tabaci) has been reported as a serious pest of cultivated crops world-wide. It has an extremely wide host range attacking more than 500 species of plants from 63 plant families. Weeds often serve as alternate hosts of crop pests. Direct feeding damage is caused by the piercing and sucking sap from the foliage of plants. This feeding causes weakening and early wilting of the plant and reduces the plant growth rate and yield Indirect damage results by the accumulation of honeydew produced by the whiteflies. Honeydew serves as a substrate for the growth of black sooty mold on leaves and fruit reducing photosynthesis and lessens the market value of the plant or yield. […] The sweetpotato whitefly is considered the most common and important whitefly vector of plant viruses worldwide.
Cotton plants (Gossypium hirsutum) grown in 3-inch pots, with 1 small (4-5 cm) true leaves, were used as test substrate. The plants were infested with 200-400 whitefly eggs 4-5 days prior to chemical application. Four pots with individual plants were used for each treatment. Test compounds (2 mg) were dissolved in 1 mL of acetone solvent, forming stock solutions of 2000 ppm test compound. The stock solutions were diluted 10× with 0.025% Tween 20 in water (diluents) to obtain the solution at 200 ppm test compound. A hand-held aspirator-type sprayer was used for spraying a solution to both sides of cotton leaves until runoff. Reference plants (solvent check) were sprayed with the diluent only containing 10% by volume of acetone solvent. Treated plants were held in a holding room for 9 days at approximately 25° C. and ambient relative humidity (RH) prior to grading. Evaluation was conducted by counting the number of live 3-4 nymph stage per plant under a microscope. Percent control was measured by using Abbott's correction formula (W. S. Abbott, “A Method of Computing the Effectiveness of an Insecticide” J. Econ. Entomol. 18 (1925), pp. 265-267) as follows.
Biological Data for Green Peach Aphid (GPA) (MYZUPE) and Sweetpotato Whitefly-Crawler (WF) (BEMITA)” (see table section). Corrected % Control=100*(X−Y)/X
X=No. of live nymphs on solvent check plants and
Y=No. of live nymphs on treated plants
as §1

[3] abbreviates: 200 ppm foliar spray on cabbage seedlings, graded after three days, Abbott corrected % control.
Where [4] appears, read: 200 ppm foliar spray on cotton plants, graded after 9 days, Abbott corrected % control.

Molecules are shown by their SMILES. Where two headings read alike, the source gives them in different places.

Consider `CCN(C(=O)C1CCN(C(=O)CCC#N)CC1)c1cn(-c2cccnc2)nc1Cl` [FA7, N-(3-Chloro-1-(pyridin-3-yl)-1H-pyrazol-4-yl)-1-(3-cyanopropanoyl)-N-ethylpiperidine-4-carboxamide], for which the mortality at 200 ppm is 80 to 100% in assay [1] (setting [3]) and below 0% in assay [2] (setting [4]).
Taken in the same sequence, the figures for `CCN(C(=O)CC/C(C)=N/O)c1cn(-c2cccnc2)nc1Cl` [Compound F105, (E)-N-(3-chloro-1-(pyridin-3-yl)-1H-pyrazol-4-yl)-N-ethyl-4-(hydroxyimino) pentanamide] were 0 to 80% and 80 to 100%.
As for `CC(=O)CCC(=O)N(C)c1cn(-c2cccnc2)nc1Cl` [FA75, N-(3-Chloro-1-(pyridin-3-yl)-1H-pyrazol-4-yl)-N-methyl-4-oxopentanamide], the values for the mortality at 200 ppm in assay [1] (setting [3]) and in assay [2] (setting [4]) were 0 to 80% and 80 to 100%, respectively.
The corresponding values for `CCN(C(=O)CCC1CN(Cc2ccc(C(F)(F)F)nc2)C1=O)c1cn(-c2cccnc2)nc1Cl` (stereo not drawn) [Compound F91, N-(3-Chloro-1-(pyridin-3-yl)-1H-pyrazol-4-yl)-N-ethyl-3-(2-oxo-1-((6-(trifluoromethyl)pyridin-3-yl)methyl)azetidin-3-yl)propanamide] are 80 to 100% and 80 to 100%.
Taken in the same sequence, the figures for `O=C(CCC(=O)N(CC1CC1)c1cn(-c2cccnc2)nc1Cl)N1CCCC1` [Compound F95, N-(3-Chloro-1-(pyridin-3-yl)-1H-pyrazol-4-yl)-N-(cyclopropylmethyl)-4-oxo-4-(pyrrolidin-1-yl)butanamide] were 0 to 80% and 0 to 80%.
On to `CCN(C(=O)CCNC(=O)OC(C)(C)C)c1cn(-c2cccnc2)nc1Cl` [Compound F19, tert-Butyl (3-((3-chloro-1-(pyridin-3-yl)-1H-pyrazol-4-yl)(ethyl)amino)-3-oxopropyl)carbamate], for which the mortality at 200 ppm in assay [1] (setting [3]) and in assay [2] (setting [4]) was 80 to 100% throughout.
With `CCN(C(=O)CCn1ccc(/C(C)=N/OC(C)C)n1)c1cn(-c2cccnc2)nc1Cl` [FA2, (E/Z)-N-(3-Chloro-1-(pyridin-3-yl)-1H-pyrazol-4-yl)-N-ethyl-3-(3-(1-(isopropoxyimino)ethyl)-1H-pyrazol-1-yl)propanamide], the mortality at 200 ppm in assay [1] (setting [3]) fell in the range of 0 to 80%; in assay [2] (setting [4]) it was 80 to 100%.
The corresponding values for `CCN(C(=O)C1CCCN(C(C)=O)C1)c1cn(-c2cccnc2)nc1Cl` (stereo not drawn) [FA45, 1-Acetyl-N-(3-chloro-1-(pyridin-3-yl)-1H-pyrazol-4-yl)-N-ethylpiperidine-3-carboxamide] are 80 to 100% and 0 to 80%.
The corresponding values for `CCN(C(=O)CCC(=O)N(C)CC1CC1)c1cn(-c2cccnc2)nc1Cl` [Compound F30, N1-(3-Chloro-1-(pyridin-3-yl)-1H-pyrazol-4-yl)-N4-(cyclopropylmethyl)-N1-ethyl-N4-methylsuccinamide] are 80 to 100% and 80 to 100%.
Regarding `CCN(C(=O)CCn1ccc(C(C)=O)n1)c1cn(-c2cccnc2)nc1Cl` [FA68, 3-(3-Acetyl-1H-pyrazol-1-yl)-N-(3-chloro-1-(pyridin-3-yl)-1H-pyrazol-4-yl)-N-ethylpropanamide], the results for the mortality at 200 ppm in assay [1] (setting [3]) and in assay [2] (setting [4]) were below 0% and 80 to 100%, respectively.
Take `CCN(C(=O)CN(C)C(=O)OC(C)(C)C)c1cn(-c2cccnc2)nc1Cl` [Compound F4, tert-Butyl (2-((3-chloro-1-(pyridin-3-yl)-1H-pyrazol-4-yl)(ethyl)amino)-2-oxoethyl)(methyl)carbamate]: the mortality at 200 ppm in assay [1] (foliar) and in assay [2] (foliar) was 80 to 100% in each case.
On to `CCN(C(=O)CCC(=O)N1CCCCCC1)c1cn(-c2cccnc2)nc1Cl` [Compound F100, 4-(Azepan-1-yl)-N-(3-chloro-1-(pyridin-3-yl)-1H-pyrazol-4-yl)-N-ethyl-4-oxobutanamide], for which the mortality at 200 ppm in assay [1] (setting [3]) lay in the range of 0 to 80%; in assay [2] (setting [4]), 80 to 100%.
`CCN(C(=O)CCC1CN(Cc2ccc(C(F)(F)F)cc2)C1=O)c1cn(-c2cccnc2)nc1Cl` (stereo not drawn) [Compound F129]: the mortality at 200 ppm in assay [1] (setting [3]) is 0 to 80%; in assay [2] (setting [4]) it was 80 to 100%.
`CCN(C(=O)CCN(CC(F)F)C(=O)n1ccnc1)c1cn(-c2cccnc2)nc1Cl` [Compound F17, N-(3-((3-chloro-1-(pyridin-3-yl)-1H-pyrazol-4-yl)(ethyl)amino)-3-oxopropyl)-N-(2,2-difluoroethyl)-1H-imidazole-1-carboxamide]: the figures for the mortality at 200 ppm in assay [1] (foliar) and in assay [2] (foliar) were 0 to 80% and 80 to 100%, respectively.
As for `CCN(C(=O)C1CCN(C(=O)OC(C)(C)C)CC1)c1cn(-c2cccnc2)nc1Cl` [Compound F110, tert-Butyl 44-(3-chloro-1-(pyridin-3-yl)-1H-pyrazol-4-yl)(ethylcarbamoyl) piperidine-1-carboxylate], the mortality at 200 ppm in assay [1] (setting [3]) and in assay [2] (setting [4]) was 80 to 100% throughout.
In the case of `CCN(C(=O)CN1CCSC1=O)c1cn(-c2cccnc2)nc1Cl` [Compound F10, N-(3-Chloro-1-(pyridin-3-yl)-1H-pyrazol-4-yl)-N-ethyl-2-(2-oxothiazolidin-3-yl)acetamide], the mortality at 200 ppm lay within 0 to 80% in assay [1] (setting [3]) and 80 to 100% in assay [2] (setting [4]).
Taken in the same sequence, the figures for `CCN(C(=O)CCCC1CN(CC2CC2(F)F)C1=O)c1cn(-c2cccnc2)nc1Cl` (stereo not drawn) [Compound F104, N-(3-Chloro-1-(pyridin-3-yl)-1H-pyrazol-4-yl)-4-(1-((2,2-difluorocyclopropyl)methyl)-2-oxoazetidin-3-yl)-N-ethylbutanamide] were 80 to 100% and 80 to 100%.
Taken in the same sequence, the figures for `CCN(C(=O)CCC(=O)NCC1CC1)c1cn(-c2cccnc2)nc1Cl` [Compound F70, N1-(3-Chloro-1-(pyridin-3-yl)-1H-pyrazol-4-yl)-N4-(cyclopropylmethyl)-N1-ethylsuccinamide] were 80 to 100% and 80 to 100%.
Taken in the same sequence, the figures for `CCN(C(=O)CCn1ccc(/C(C)=N/OC)n1)c1cn(-c2cccnc2)nc1Cl` [FA1, (E/Z)-N-(3-Chloro-1-(pyridin-3-yl)-1H-pyrazol-4-yl)-N-ethyl-3-(3-(1-(methoxyimino)ethyl)-1H-pyrazol-1-yl)propanamide] were 0 to 80% and 80 to 100%.
For `CN(C(=O)[C@@H]1C=C[C@H](NC(=O)OC(C)(C)C)C1)c1cn(-c2cccnc2)nc1Cl` [Compound F109, tert-butyl ((1R,4S)-4-((3-chloro-1-(pyridin-3-yl)-1H-pyrazol-4-yl)(methyl)carbamoyl)cyclopent-2-en-1-yl)carbamate], the mortality at 200 ppm was in the range of 0 to 80% in assay [1] (setting [3]) and 80 to 100% in assay [2] (setting [4]).
The corresponding values for `CC(=O)N[C@@H]1C=C[C@H](C(=O)N(C)c2cn(-c3cccnc3)nc2Cl)C1` [Compound F86, (1R,4S)-4-acetamido-N-(3-chloro-1-(pyridin-3-yl)-1H-pyrazol-4-yl)-N-methyl-cyclopent-2-enecarboxamide] are 80 to 100% and 80 to 100%.
